Experiment [1] has as its system pre-contracted isolated rat aortas. As to the kind of experiment: TX-antagonistic action: inhibition of contraction of the isolated rat aorta ring pre-contracted with U 46619. Format: cell-based. The settings on record: aorta rings precontracted with 0.3 μmol/l U 46619, cumulative addition, 37° C. The protocol: 1. TX-antagonistic action on the isolated rat sorts ring pre-contracted with U 46619
The isolated rat sorts freed from surrounding connective tissue is cut up into equally wide rings and superinfused in a 10 ml organ bath with Krebs-Hanseleit buffer at 37° C. After about 45 min., equilibration time, the sorts rings are precontracted with 0.3 μmol/l U 46619, a stable analogue of the prostaglandin endoperoxide PGH2 (Upjohn & Co., Kalamazoo, USA). U 46619 was characterised as selective thromboxane mimetic (Coleman et al., Brit. J. Pharmacol. 68, 127P, 1980). As soon as a stable plateau is reached (after about 15 min.), the test substance is added cumulatively directly into the organ bath to the aorta ring, beginning with 10 nmol/l, until either an end concentration of 100 μmol/l is reached or the contraction is completely antagonised. There is calculated the particular percentage inhibition of the contraction by the test substance. From the concentration-action curves is determined the IC50, i.e. the half maximum inhibiting concentration.

Experiment [2] has as its system U 46619-caused lung embolism. Description: Prevention of the U 46619-caused lung embolism (survival). In kind it is in vivo, male NMRI mice. The conditions noted are these: po, mouse, stomach probe, U 46619 injected 4 h later (800-1000 μg/kg, tail vein), read-out: survival rate of mouse 1 mg/kg after 4 h. As for the experimental part: 2. Prevention of the U 46619-caused lung embolism
Male NMRI mice of about 25 g body weight are used. The test substance is suspended in 1% methyl cellulose solution and administered to the experimental animals by means of a stomach probe. The provocation test consists in that a dose lethal for the control animals (800-1000 μg/kg) of the thromboxane mimetic (U 46619 of the firm Upjohn) is rapidly injected into the tail vein. The period of the specific antagonistic action is tested in that the animals are pre-treated with 1 mg/kg of the various test substances and the injection of U 46619 takes place after 4 h. The survival rate indicates what percent of the animals used survive the injection of the thromboxane mimetic.

Experiment [3] concerns U46619-induced bronchospasm of the guinea pig. As to the kind of experiment: Inhibition of the U 46619-induced bronchospasm of the anaesthetised guinea pig. The settings on record: Cavia porcellus, iv, 10 min, test substance i.v., 10 μg/kg U 46619 i.v., AUC over 10 min, read-out: ID50 of U46619-induced bronchospasm of the guinea pig. Format: in vivo. The protocol:
3. Inhibition of the U 46619-induced bronchospasm of the anaesthetised guinea pig
Guinea pigs are anaesthetised with narcoren and provided with a jugular vein catheter and a tracheal canula. The animals are mechanically respirated with atmospheric air with 1 ml/100 g body weight. The tracheal canula is connected via a three-way stopcock with a Stathem pressure element which takes up the pressure resulting by the contraction of the smooth musculature in the trachea and passes on to a recorder via a measuring bridge. After achievement of a constant basal tonus, the animals receive 10 μg/kg U 46619 i.v. administered via the jugular vein catheter. The dose induces a rapidly increasing bronchospasm which, after about 10 minutes, again subsides and is very readily reproducable. After 15 minutes follows a second administration of 10 μg/kg U 46619, in the course of which, after 5 minutes, the test substance is given i.v. in various doses. After a further 15 minutes, the same dose of U 46619 is again injected. The areas under the curve over 10 min of the administration 1 and 3 are determined planimetrically on a Kontron-Videoplan unit and the bronchospasm after administration 3 calculated in percentage of the bronchospasm after administration 1. The ID50 of the test substance can be determined from the quotients.

SMILES strings stand for the structures.

Data on 9 compounds can be found in US5446065A, “Sulfonamides of phenylalkylamines or phenoxyalkylamines processes for their preparation and medicaments containing these compounds” (Boehringer Mannheim GmbH, priority 1990, dated 1995).

For orientation: IC50 means the concentration needed to halve the response being measured.

On to `O=C(COc1cccc(CCNS(=O)(=O)c2ccc(Cl)cc2)c1)NCCO` [Ex. 1 f, 3-[2-(4-chlorophenylsulphonylamino)-ethyl]-phenoxyacetic acid (2-hydroxyethylamide)], for which the IC50 in experiment [1] was determined as 1600 nM. Also, the responders at 1 mg/kg in experiment [2] worked out at 100%. Further, the ED50 in experiment [3] was 0.02 mg/kg.

For `O=C(COc1ccc(CCNS(=O)(=O)c2ccc(Cl)cc2)cc1)Nc1cccnc1` [Ex. 1 r, 4-[2-(4-chlorophenylsulphonylamino)-ethyl]-phenoxyacetic acid (3-pyridyl)-amide], in experiment [1], it took 1000 nM to reach half-maximal inhibition (IC50). The responders at 1 mg/kg in experiment [2] came out at 90%. In experiment [3], the ED50 was 0.02 mg/kg.

As for `CCNC(=O)COc1cccc(CCNS(=O)(=O)c2ccc(Cl)cc2)c1` [Ex. 2 a, 3-[2-(4-chlorophenylsulphonylamino)-ethyl]-phenoxyacetic acid ethylamide], the IC50 in experiment [1] was 1800 nM. Moreover, the responders at 1 mg/kg in experiment [2] worked out at 100%. In experiment [3], the ED50 amounted to 0.01 mg/kg.

The compound `O=C(COc1cccc(CCNS(=O)(=O)c2ccc(Cl)cc2)c1)N(CCO)CCO` [Ex. 1 g, 3-[2-(4-chlorophenylsulphonylamino)-ethyl]-phenoxyacetic acid 2-[bis-(2-hydroxyethyl)-amide]] gave an IC50 in experiment [1] of 1600 nM. The responders at 1 mg/kg in experiment [2] is 100%. Also, in experiment [3], the ED50 was determined as 0.04 mg/kg.

`O=C(COc1cccc(CCNS(=O)(=O)c2ccc(Cl)cc2)c1)N1CCCCC1` [Ex. 1 d, 3-[2-(4-chlorophenylsulphonylamino)-ethyl]-phenoxyacetylpiperidide] registered an IC50 in experiment [1] of 3400 nM. The responders at 1 mg/kg in experiment [2] came out at 100%. Moreover, the ED50 in experiment [3] came to 0.5 mg/kg.

The compound `NCCCc1ccc(CCNS(=O)(=O)c2ccc(Cl)cc2)cc1` [Ex. 4 m, 1-[4-[2-(4-chlorophenylsulphonylamino)-ethyl]-phenyl]-3-aminopropane] displayed an IC50 in experiment [1] of 3000 nM. Moreover, the responders at 1 mg/kg in experiment [2] stood at 100%. Moreover, in experiment [3], the ED50 came out at 0.05 mg/kg.

In turn, `NCCCCc1ccc(CCNS(=O)(=O)c2ccc(Cl)cc2)cc1` [Ex. 4 s, 1-[4-[2-(4-chlorophenylsulphonylamino)-ethyl]-phenyl]-4-aminobutane] gave an IC50 in experiment [1] of 2600 nM. The responders at 1 mg/kg in experiment [2] is 90%. The ED50 in experiment [3] was 0.1 mg/kg.

As to `NCCOc1cccc(CCNS(=O)(=O)c2ccc(Cl)cc2)c1` [Ex. 4, 1-[3-[2-(4-Chlorophenylsulphonylamino)-ethyl]-phenoxy]-2-aminoethane], in experiment [1], the midpoint of inhibition, the IC50, lay at 340 nM. The responders at 1 mg/kg in experiment [2] was determined as 100%. For the same compound, in experiment [3], the ED50 was determined as 0.01 mg/kg.

Consider `NCCc1ccc(CCNS(=O)(=O)c2ccc(Cl)cc2)cc1` [Ex. 5, 1-[4-[2-(4-Chlorophenylsulphonylamino)-ethyl]-phenyl]-2-aminoethane], for which the half-maximal inhibitory concentration (IC50) in experiment [1] came to 100 nM. For the same compound, the responders at 1 mg/kg in experiment [2] was 100%. The ED50 in experiment [3] amounted to 0.05 mg/kg.
